{"source": "patent US20020022742A1", "about": "“Salt forms of an HIV protease inhibitor” (priority 2000, published 2002)", "key": {"HIV protease": {"molecular_target": "HIV protease (Human immunodeficiency virus type 1 group M subtype B, UniProt P04585)", "test": "HIV protease inhibition (test only mentioned)", "type": "biochemical", "conditions": "stated in words only, no value given"}, "HIV-1 (RF)": {"system": "HIV-1 (RF)", "test": "HIV RNA assay, microplate based compound evaluation in HIV-1 infected MT-2 cells", "type": "cell-based", "conditions": "Human immunodeficiency virus 1, MT2, 72 h; HIV-1 (RF) infected MT-2 cells, 3 days of culture; virus dilutions selected to result in this value (standardization of inoculum); read-out: IC90 (concentration of compound required to reduce the HIV RNA level by 90%)"}}, "data": [{"smiles": "CC(C)CN(C[C@@H](O)[C@H](Cc1ccccc1)NC(=O)[C@@H](NC(=O)CNCc1cccc(F)c1)C(C)(C)C)S(=O)(=O)c1ccc(N)cc1", "note": "[Compound A]", "values": [{"measurement": "HIV protease inhibitory activity", "setting": "HIV protease", "result": "potent HIV protease inhibitor"}]}, {"smiles": "Nc1ccn([C@H]2CC[C@@H](CO)O2)c(=O)n1", "note": "[ddC, dideoxycytidine]", "values": [{"measurement": "IC90", "setting": "HIV-1 (RF)", "result": 0.2, "unit": "µg/mL"}]}]}
